From patent publication US20080200393A1, “Method and Composition For Treating Angiogenesis and For Preventing Cancer Progression and Metastasis Comprising a Prostate Secretory Protein (Psp94) Family Member” (Ambrillia Biopharma Inc., priority 2004, published 2008)
Where no end group is shown, it is not given here.

Legend:
[1] = tested on: ERK; assay: PDGF-induced ERK phosphorylation in PASMC; type: cell-based
Protocol: (§1) Cell culture. Human umbilical vein endothelial cells (HUVEC) and pulmonary aortic smooth muscle cells (PASMC) were obtained from Clonetics and maintained in endothelial cell basal medium-2 (EBM-2; Clonetics) and smooth muscle medium-2 (SmGM-2; Clonetics), respectively. Cells were cultured at 37° C. under a humidified atmosphere containing 5% CO2. For experimental purposes, cells were plated in 8 100-mm plastic dishes at 5,000 cells/cm^2 and were grown to confluence before overnight serum starvation. Cells were treated with vehicle or with a PCK3145 derivative diluted in 0.1 N NaOH, and stimulated with 50-100 ng/ml VEGF or PDGF, with 10 ng/ml of bFGF (basic fibroblast growth factor) or with 1 μM S1P (sphingosine-1-phosphate).
(§2) Immunoprecipitation and immunoblotting procedures. After treatment, cells were washed once with phosphate-buffered saline (PBS) containing 1 mM sodium orthovanadate and were incubated in the same medium for 1 h at 4° C. […] The cells were then scraped from the culture dishes and the resulting lysates were clarified by centrifugation at 10,000 g for 10 min; Protein concentrations were determined using the micro bicinchoninic acid method (Pierce). […] The immunoreactive bands were quantified by scanning densitometry (Molecular Dynamics). […]

[2] = tested on: HUVEC; assay: Matrigel endothelial cell tube formation assay; type: cell-based, Human; conditions: HUVEC on Matrigel, 0-300 μg/ml, serum-free media, 24 hours
Protocol: Matrigel endothelial cell tube formation assay Matrigel (12.5 mg/ml) was thawed at 4° C., and 50 μl were quickly added to each well of a 96-well plate and allowed to solidify for 10 min at 37° C. […] The formation of capillary-like structures was examined microscopically and pictures (50×) were taken using a Retiga 1300 camera and a Zeiss Axiovert S100 microscope. The extent to which capillary-like structures formed in the gel was quantified by analysis of digitized images to determine the thread length of the capillary-like network, using a commercially available image analysis program (Northern Eclipse).
Matrigel endothelial cell tube formation assay. […] The extent to which capillary-like structures formed in the gel was quantified by analysis of digitized images using a commercially available image analysis software (Northern Eclipse) (25).
This three dimensional ECM model assay provides physiologically relevant environment for studies of cell morphology, biochemical function, and gene expression in endothelial cells (EC) that can be modulated for instance by tumor growth factors or hypoxic culture conditions. […] The extent of capillary-like structures formation (density and size of structures) can be quantified by analysis of digitized images to determine the relative size and area covered by the tube-like network, using an image analysis software (Un-Scan-it, Empix Imaging). […]

[3] = target: T1, PDGF receptor (PDGFR) (Homo sapiens, UniProt P09619); assay: PDGF-induced PDGFR phosphorylation in PASMC; type: cell-based
T1 construct: the PDGF receptor (PDGFR) in PASMC (pulmonary aortic smooth muscle cells); host or cells: PASMC (pulmonary aortic smooth muscle cells)
T1 sequence (P09619 33-1106): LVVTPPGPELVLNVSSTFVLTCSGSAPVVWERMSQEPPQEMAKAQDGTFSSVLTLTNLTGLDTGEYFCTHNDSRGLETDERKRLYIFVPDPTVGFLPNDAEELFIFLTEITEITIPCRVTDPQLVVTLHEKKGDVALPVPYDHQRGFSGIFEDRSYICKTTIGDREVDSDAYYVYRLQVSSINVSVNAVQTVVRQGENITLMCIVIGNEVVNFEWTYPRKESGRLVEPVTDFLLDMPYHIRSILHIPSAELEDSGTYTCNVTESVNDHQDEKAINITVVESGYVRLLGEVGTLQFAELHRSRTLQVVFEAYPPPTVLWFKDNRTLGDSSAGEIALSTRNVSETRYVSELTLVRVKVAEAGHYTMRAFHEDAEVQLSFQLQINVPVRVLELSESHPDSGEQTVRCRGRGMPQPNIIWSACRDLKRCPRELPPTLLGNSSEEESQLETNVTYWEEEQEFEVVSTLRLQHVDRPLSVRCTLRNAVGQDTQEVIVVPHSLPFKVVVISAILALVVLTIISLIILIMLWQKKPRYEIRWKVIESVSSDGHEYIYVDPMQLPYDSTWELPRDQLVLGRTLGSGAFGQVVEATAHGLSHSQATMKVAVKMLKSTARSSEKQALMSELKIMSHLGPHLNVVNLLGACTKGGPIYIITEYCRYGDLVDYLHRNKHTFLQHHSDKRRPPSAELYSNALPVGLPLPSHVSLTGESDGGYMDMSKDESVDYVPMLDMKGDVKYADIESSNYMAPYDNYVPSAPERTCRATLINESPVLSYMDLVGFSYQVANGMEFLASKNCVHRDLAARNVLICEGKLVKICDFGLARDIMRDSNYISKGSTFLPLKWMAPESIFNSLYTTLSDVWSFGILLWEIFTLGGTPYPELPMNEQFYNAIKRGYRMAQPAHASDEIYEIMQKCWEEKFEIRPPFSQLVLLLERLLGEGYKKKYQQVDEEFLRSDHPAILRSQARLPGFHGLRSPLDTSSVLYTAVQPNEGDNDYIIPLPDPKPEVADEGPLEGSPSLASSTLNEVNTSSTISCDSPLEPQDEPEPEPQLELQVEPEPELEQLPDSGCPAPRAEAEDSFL
Protocol: as §1, §2

Sequence: EWQTDNCETCTCYET (cysteine pairing not given here) [PCK3145 derivative, PCK3145 derivative with acetylaminomethyl groups on the three cysteines]
- PDGF-induced ERK phosphorylation [1]: inhibition
- capillary-like structure formation (tubulogenesis) [2]: negatively affects tubulogenesis
- PDGFR phosphorylation induced by PDGF [3]: inhibition
